Data from PubChem BioAssay (NCI).
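These data come from cells grown in 96-well plates and exposed to compound for 48 hours at five concentrations. GI50: concentration for 50% inhibition of growth. The concentration for full growth arrest is given as TGI.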

Key:
Experiment in all cases: NCI-60 cell line screen, 48 h
HL-60(TB) leukemia = system: HL-60(TB) leukemia
SNB-75 CNS = system: SNB-75 CNS
NCI-H460 lung = system: NCI-H460 lung
SF-268 CNS = system: SF-268 CNS
SW-620 colon = system: SW-620 colon
TK-10 renal = system: TK-10 renal
SK-MEL-28 melanoma = system: SK-MEL-28 melanoma
SF-539 CNS = system: SF-539 CNS
LOX IMVI melanoma = system: LOX IMVI melanoma
HCC-2998 colon = system: HCC-2998 colon

Structure (SMILES) | TGI (HL-60(TB) leukemia) | TGI (SNB-75 CNS) | TGI (NCI-H460 lung) | TGI (SF-268 CNS) | TGI (SW-620 colon) | TGI (TK-10 renal) | TGI (SK-MEL-28 melanoma) | TGI (SF-539 CNS) | TGI (LOX IMVI melanoma) | TGI (HCC-2998 colon) | GI50 (HL-60(TB) leukemia) | GI50 (HCC-2998 colon) | GI50 (SNB-75 CNS) | GI50 (NCI-H460 lung) | GI50 (SF-268 CNS) | GI50 (SW-620 colon) | GI50 (TK-10 renal) | GI50 (SK-MEL-28 melanoma) | GI50 (SF-539 CNS) | GI50 (LOX IMVI melanoma)
Oc1cccnc1[Se] | > 100 µM | > 100 µM | > 100 µM | > 100 µM | > 100 µM | > 100 µM | > 100 µM | > 100 µM | > 100 µM |  |  |  |  |  |  |  |  |  |  | 
[N-]=[N+]=N[C@H]1C[C@@H](CO)O[C@H]1n1cnc2c(N)ncnc21 | > 100 µM | > 100 µM | > 100 µM | > 100 µM | > 100 µM | > 100 µM | > 100 µM | > 100 µM | > 100 µM | > 100 µM |  |  |  |  |  |  |  |  |  | 
CCSc1ncnc2c1ncn2C1OC(CO)C(O)C1O (stereo not drawn) | 31.1 µM | > 100 µM | > 100 µM | > 100 µM | > 100 µM | > 100 µM | > 100 µM | > 100 µM | 16.8 µM | 7.35 µM | 0.354 µM | 0.203 µM | > 34.1 µM | 0.6 µM | 1.02 µM | 0.3 µM | 1.56 µM | > 48.3 µM | 0.437 µM | 0.0945 µM
NC(=O)C12CC3CC(CC(F)(C3)C1)C2 | > 100 µM | > 100 µM | > 100 µM |  | > 100 µM | > 100 µM | > 100 µM | > 100 µM | > 100 µM | > 100 µM |  |  |  |  |  |  |  |  |  | 
